Experiments:
[1] = Effect of co-administration of triphenylethylenes on clopidogrel metabolism in vivo (CLP*-acetamide by LC-MS); set-up: species or system Sprague-Dawley rats; conditions: rats, 0.1 to 10 mg/kg analog with 10 mg/kg clopidogrel
Protocol: Adult male Sprague-Dawley rats are dosed with various triphenylethylenes at different doses from 0.1 mg/kg to 10 mg/kg (spanning the likely doses such compounds would be used in man), or with vehicle only, and simultaneously dosed with 10 mg/kg clopidogrel, both by oral gavage. Blood samples are drawn through an in-dwelling jugular catheter at 0.5, 1, 2, 4, 8 and 24 hrs post-dose, and serum is prepared by conventional methods well known in the art.
The level of CLP*, the active metabolite of clopidogrel is then determined in each blood sample by LC-MS by collecting the blood samples in tubes containing the thiol alkylating agent iodeoacetamide. Iodoacetamide reacts with CLP* to generate a stable product which can be detected by LC-MS using standard methodology well known in the art. An authentic sample of the acetamide adduct of CLP* is used to quantify the level of CLP*-acetamide in the sample. […] The concentration of CLP*-acetamide adduct can therefore be assumed to be proportional to the concentration of CLP*. The pharmacokinetics of CLP*-acetamide are then compared under the different conditions, using standard pharmacokinetics models implemented with WinNonLin.

TGF-beta1 = assay: Functional assay for TGF-beta Production Stimulator activity: suppression of smooth muscle cell proliferation reversible by neutralising anti-TGF-beta1 antibody; format: cell-based, rat; conditions: for EC50: rat aortic smooth muscle cells in culture, 72 hrs, suppression of proliferation reversible by neutralising antibodies to TGF-beta1, from dose-response curves of FIG. 2, read-out: ED50 for the TGF-beta Production Stimulator activity
Description: In order compare Droloxifene with other triphenylethylenes, we have exploited a functional assay for TGF-beta1 activity. Alternative approaches are less suitable for various reasons: it is not possible to directly measure TGF-beta protein production by cultured cells in response to triphenylethylenes because the TGF-beta that is produced remains associated with the cells or the extracellular matrix and is therefore not available for assay (for example, by ELISA) in the conditioned medium from the cultured cells. […] The specificity of such an assay is achieved by comparing the rate of proliferation of the smooth muscle cells in the presence or absence of a validated, highly specific neutralising antibody against TGF-beta (or TGF-beta1, as required).
The cells were prepared by enzyme dispersion of isolated rat aortae exactly as described previously (Grainger et al (1993) Biochem. J. 294(1):109-12 and the references therein). The cells were cultured (37° C.; 5% CO2) in DMEM+10% foetal calf serum (FCS), and subcultured every 4 days at 1:2 dilution, using 0.02% trypsin/EDTA (Gibco). Experiments were performed between the sixth and twentieth subculture.
For the experiments, the cells were subcultured into 12-well cluster plates, and allowed to grow for 24 hrs. […] The cells were then incubated for 72 hrs. All treatment conditions were established in triplicate. One triplicate of cells was counted (see below) at 0 h. All other wells were counted at 72 hrs.
The number of cells in each well was determined as follows: the well was washed three times with serum-free DMEM, aspirated and then incubated with 100 μl of trypsin/EDTA solution (Gibco) for 2 minutes at 37° C. Complete release of the cell monolayer was confirmed microscopically. The cell density in portion of this suspension was determined by counting using an Improved Neubauer hameocytometer, ensuring the suspension was uniform by gentle pipetting, prior to sampling. The cell density was converted to the absolute number of cells present in the well by multiplying the number of cells per μl by the total volume of suspension (100 μl). For each condition, the mean number of cells at the end of the experiment was calculated by meaning the number of cells in each well of triplicate.
The extent of proliferation of the cell culture under each condition was determined by subtracting the mean number of cells at time Oh from the mean number of cells under that condition at time 72 h. The amount of TGF-beta1 activity under each condition was determined by subtracting the inhibition of growth achieved in the presence of neutralising anti-TGF-beta1 antibody (AB-101-NA; R&D Systems) from the inhibition of growth achieved in the absence of antibody.

[2] = chronic Tamoxifen users; translated from the relative risk; cited from earlier work

| effect on clopidogrel metabolism (in words) [1] | SMILES | EC50 (TGF-beta1) | activity as Production Stimulator for TGF-beta1 (in words) (TGF-beta1; rat aortic smooth muscle cells) | reduction in risk of death from myocardial infarction [2] |
| --- | --- | --- | --- | --- |
| no effect | CC/C(=C(/c1ccc(OCCN(C)C)cc1)c1cccc(O)c1)c1ccccc1 [Droloxifene, (E)-1-(4′-(2-dimethylaminoethoxy)phenyl)-1-(3-hydroxyphenyl)-2-phenylbut-1-ene] | 3 µM |  |  |
|  | CC/C(=C(\c1ccc(I)cc1)c1ccc(OCCN2CCCC2)cc1)c1ccccc1 [Idoxifene] | 5 µM |  |  |
|  | O=C(c1ccc(OCCN2CCCCC2)cc1)c1c(-c2ccc(O)cc2)sc2cc(O)ccc12 [Raloxifene] | > 100 µM | does not have measurable activity |  |
|  | CC/C(=C(\c1ccccc1)c1ccc(OCCN(C)C)cc1)c1ccccc1 [Tamoxifen] |  |  | 33% |
|  | CN(C)CCOc1ccc(/C(=C(/CCCl)c2ccccc2)c2ccccc2)cc1 [Toremifene] | 10 µM |  |  |

— patent US20110136858A1, “Preferred Combination Therapy” (priority 2009, published 2011)
